The values below come from EP0403172A2, “Purified enzyme and process therefor” (OKLAHOMA STATE UNIVERSITY, priority 1989, dated 1990).

Where two headings read alike, the source gives them in different places. Where only a bound is given, the exact number is not on record here.

Common to all, as to type: biochemical
Experiment [1] deals with T1, isopenicillin N epimerase (Streptomyces clavuligerus, UniProt P18549).
T1 construct: Approximately 250 g of frozen whole cells of S. clavuligerus were thawed and homogenated; made in house; host or cells: Streptomyces clavuligerus NRRL 18491 (native producer; the endogenous enzyme was purified from cell-free extract, not made recombinantly)
T1 sequence (P18549 1-398): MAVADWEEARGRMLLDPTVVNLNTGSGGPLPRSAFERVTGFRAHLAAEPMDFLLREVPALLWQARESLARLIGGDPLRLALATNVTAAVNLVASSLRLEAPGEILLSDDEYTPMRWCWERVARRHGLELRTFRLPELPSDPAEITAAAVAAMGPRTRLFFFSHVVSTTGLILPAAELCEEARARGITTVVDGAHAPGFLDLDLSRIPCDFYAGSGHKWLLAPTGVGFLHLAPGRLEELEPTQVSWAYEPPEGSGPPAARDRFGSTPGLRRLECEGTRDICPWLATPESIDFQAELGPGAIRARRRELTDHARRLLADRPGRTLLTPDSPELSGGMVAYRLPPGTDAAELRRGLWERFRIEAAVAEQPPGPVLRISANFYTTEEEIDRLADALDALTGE
As to the kind of experiment: Epimerase activity assay (product formation from isopenicillin N / penicillin N, quantitated by HPLC after o-phthaldialdehyde derivatization). How it is done: The epimerase activity was determined by the product formation using isopenicillin N and penicillin N as substrates. Formation of isopenicillin N and penicillin N was quantitated by HPLC. […] The reaction mixture was incubated at 37°C for 20 min. The reaction was terminated by placing the reaction vessel in boiling water for 10 min, immediately cooling the reaction mixture with ice, and then filtering the cold mixture through a 0.45 µm filter.
The derivatives were then analyzed by HPLC. The assay samples were prepared for HPLC as follows. The assay filtrate, obtained as described above, 20 µl was mixed with 5 µl of a derivatizing reagent consisting of 4 mg of o-phthaldialdehyde dissolved in 300 µl of methanol, 250 µl of 0.4 M sodium borate, pH 9.4, 390 µl of water and 60 µl of 1 M N-acetyl-L-cysteine, adjusted to pH 5-6 with sodium hydroxide. After a 2 min reaction time, 200 µl of 50 mM sodium acetate, pH 5.0, were added to the mixture and 50 µl aliquots were used for HPLC analysis.

Experiment [2] has as its target T1, isopenicillin N epimerase. As to the kind of experiment: Conversion to apoenzyme with hydroxylamine / reduction with sodium borohydride, then activity. Here is the method: PLP bound to the epimerase was measured by the known phenylhydrazine method and an average value of one mole of PLP per 47,000 g of enzyme was obtained. The haloenzyme was converted to the apoenzyme by incubation at 0°C for 60 min with 10 mM potassium phosphate, pH 7.0, containing 10 mM hydroxylamine followed by gel filtration. The hydroxylamine treated epimerase expressed no activity in the absence of exogenous PLP and the absorption maximum at 420 nm disappeared (FIG. 1, curve 2). The epimerase activity was restored by the addition of PLP to the apoenzyme. The apparent Michelis constant for PLP was determined to be 2.4 µM.
The absorption spectra shown in FIG. 1 of the drawings were obtained as follows. The epimerase (haloenzyme), curve 1, was treated with 10 mM hydroxylamine (apoenzyme), curve 2, or was reduced with 1 mM sodium borohydride, curve 3. After removal of hydroxylamine or sodium borohydride by gel filtration, absorption spectra were run in 10 mM potassium phosphate, pH 7.0, at the enzyme concentration of 0.57 mg/ml with an Aminco DW-2000 spectrophotometer.

Experiment [3] has as its target T1, isopenicillin N epimerase. The experiment can be described thus: Fluorescamine titration of hydroxylamine-treated epimerase with activity assay of aliquots. The note with it: fluorescamine/epimerase ratio of 35 mole/mole. How it is done:
Fluorescamine reacts with primary amino groups, such as the α-amino group of the N-terminal amino residue and the ε-amino groups of lysine in the enzyme to form fluorescent products with maximum excitation and emission wavelength of 390 nm and 475 nm, respectively.
The emission fluorescence of fluorescamine treated epimerase shown in FIG. 2 of the drawings was obtained as follows. The epimerase (0.5 mg/ml) was incubated in 10 mM potassium phosphate, pH 7.0, containing 10 mM hydroxylamine at 0°C for 60 min. After removal of hydroxylamine by gel filtration, the treated enzyme (0.16 mg/ml) in 10 mM potassium phosphate, pH 7.0, was titrated with the indicated amounts of fluorescamine (50 mM) dissolved in dry acetone at 25°C. The sample was excited at 390 nm and the emission fluorescence was followed at 475 nm. […] Simultaneously, aliquots of the enzyme solution were withdrawn and activity for isopenicillin N was assayed. The assay results (% activity) are shown on the curve labeled "●" in FIG. 2.

The mark [4] stands for this setting: compound as epimerase substrate at 1.4 mM, Isopenicillin N = 100, read-out: Relative Activity (%).
Setting [5] is: compound as epimerase substrate at 1.4 mM, Isopenicillin N = 100.

Compound `Cc1cc2nc3c(=O)[nH]c(=O)nc-3n(C[C@H](O)[C@H](O)[C@H](O)COP(=O)(O)OP(=O)(O)OC[C@H]3O[C@@H](n4cnc5c(N)ncnc54)[C@H](O)[C@@H]3O)c2cc1C` [FAD, Flavin-Adenine Dinucleotide] returned an Activity in experiment [1] (Table 4, compound at 0.5 mM) of 42 µmol/min/mL. The same compound had an inhibition at 500 µM in experiment [1] (compound at 0.5 mM) of 80%.
Regarding `CC1(C)S[C@@H]2[C@H](NC(=O)CCC[C@H](N)C(=O)O)C(=O)N2[C@H]1C(=O)O` [Isopenicillin N], the Activity in experiment [1] (setting [4]) was determined as 100%.
Turning to `CC1=CSC2C(NC(=O)CCCC(N)C(=O)O)C(=O)N2C1C(=O)O` (stereo not shown) [IsoDAOC, Isodeacetoxycephalosporin C (2-cephem)], the “Relative Activity (%)” value in experiment [1] (setting [5]) is given as 0%.
`CC(=O)N[C@@H](CS)C(=O)O` [N-acetyl-L-cysteine]: the Activity in experiment [1] (sulfhydryl compound at 0.2 mM) worked out at 224 µmol/min/mL; in experiment [1] (sulfhydryl compound at 0.5 mM), 190 µmol/min/mL.
Regarding `N[C@@H]1CONC1=O` [D-Cycloserine], at 1000 µM the inhibition in experiment [1] (compound at 1.0 mM) was 23%.
Take `CC1(C)S[C@@H]2[C@H](NC(=O)CCC[C@@H](N)C(=O)O)C(=O)N2[C@H]1C(=O)O` [Penicillin N]: the Activity in experiment [1] (setting [4]) amounted to 204%.
`NNC(=O)c1ccncc1` [Isoniazid] came in with an inhibition at 1000 µM in experiment [1] (compound at 1.0 mM) of 23%.
As to `O=CC(=O)c1ccccc1` [Phenylglyoxal], the inhibition at 1000 µM in experiment [1] (compound at 1.0 mM) came out at 33%.
Take `CCN1C(=O)C=CC1=O` [N-Ethylmaleimide]: the inhibition at 100 µM in experiment [1] (compound at 0.1 mM) stood at 26%. Moreover, in experiment [1] (compound at 1.0 mM), at 1000 µM the inhibition was 45%.
As for `N[C@H](CCCC(=O)N[C@@H]1C(=O)N2C(C(=O)O)=C(CO)CS[C@H]12)C(=O)O` [DAC, Deacetylcephalosporin C], in experiment [1] (setting [5]), the “Relative Activity (%)” value was 0%.
For the compound `O=S(=O)(F)Cc1ccccc1` [phenylmethylsulfonyl fluoride], the “effect on activity of epimerase” value in experiment [1] was “do not affect”.
`O[C@H](CS)[C@H](O)CS` (racemic) [Dithiothreitol]: the “effect on activity of epimerase” value in experiment [1] is “partially stimulated”. Moreover, the Activity in experiment [1] (sulfhydryl compound at 0.2 mM) is 290 µmol/min/mL; in experiment [1] (sulfhydryl compound at 0.5 mM), 300 µmol/min/mL.
For `CC(C)NNC(=O)c1ccncc1` [Iproniazid], the inhibition at 1000 µM in experiment [1] (compound at 1.0 mM) is 25%.
In experiment [1] (Table 4, compound at 1 mM), `Nc1ncnc2c1ncn2[C@@H]1O[C@H](COP(=O)(O)OP(=O)(O)OP(=O)(O)O)[C@@H](O)[C@H]1O` [ATP, Adenosine Triphosphate] had an Activity of 208 µmol/min/mL.
Regarding `N[C@@H](CCCC(=O)O)C(=O)O` [L-Amino adipic acid], the Activity in experiment [1] (setting [4]) came out at 0%.
The compound `CC(C)(COP(=O)(O)OP(=O)(O)OC[C@H]1O[C@@H](n2cnc3c(N)ncnc32)[C@H](O)[C@@H]1OP(=O)(O)O)[C@@H](O)C(=O)NCCC(=O)NCCS` [CoA, Coenzyme A] yielded an Activity in experiment [1] (Table 4, compound at 1 mM) of 202 µmol/min/mL.
On to `CC(C)[C@@H](NC(=O)[C@H](CS)NC(=O)CCC[C@H](N)C(=O)O)C(=O)O` [ACV, δ-(L-α-aminoadipoyl)-L-cysteinyl-D-valine], for which the Activity in experiment [1] (setting [4]) amounted to 0%.
As to `OCCS` [β-mercaptoethanol], the “effect on activity of epimerase” value in experiment [1] is reported as “partially stimulated”. Also, the values for the Activity in experiment [1] (sulfhydryl compound at 0.2 mM) and in experiment [1] (sulfhydryl compound at 0.5 mM) were 275 µmol/min/mL and 281 µmol/min/mL, respectively.
For `CC(=O)OCC1=C(C(=O)O)N2C(=O)[C@@H](NC(=O)CCC[C@@H](N)C(=O)O)[C@H]2SC1` [Ceph C, cephalosporin C], in experiment [1] (setting [4]), the Activity was found to be 0%.
For `NC(=O)C1=CN([C@@H]2O[C@H](COP(=O)(O)OP(=O)(O)OC[C@H]3O[C@@H](n4cnc5c(N)ncnc54)[C@H](O)[C@@H]3O)[C@@H](O)[C@H]2O)C=CC1` [NADH, Reduced Nicotinamide Adenine Dinucleotide], the Activity in experiment [1] (Table 4, compound at 1 mM) came to 184 µmol/min/mL.
For the compound `[BH4-].[Na+]` [sodium borohydride], the “catalytic activity after reduction” value in experiment [2] (reduction of haloenzyme with sodium borohydride (1 mM), PLP did not restore activity) is given as “destroyed catalytic activity”.
In the case of `Cc1ncc(COP(=O)(O)O)c(C=O)c1O` [PLP, pyridoxal-5′-phosphate], the “apparent Michelis constant for PLP” value in experiment [1] (PLP added to the apoenzyme (hydroxylamine treated)) was determined as 2.4 µM.
Take `O=C1OC2(OC=C(c3ccccc3)C2=O)c2ccccc21` (stereo not shown) [fluorescamine]: the epimerase activity remaining result in experiment [3] is listed as “about 80%”.
In experiment [1] (compound at 1.0 mM), `NC(=O)CI` [Iodoacetamide] yielded an inhibition at 1000 µM of 28%.
Take `N[C@H](CCCC(=O)O)C(=O)O` [D-Amino adipic acid]: the Activity in experiment [1] (setting [4]) turned out to be 0%.
The compound `O=S(=O)([O-])[O-].[Fe+2]` [FeSO4] displayed an Activity in experiment [1] (Table 4, compound at 0.1 mM) of 150 µmol/min/mL.
On to `NO` [Hydroxylamine], for which the “epimerase activity after treatment” value in experiment [2] (10 mM hydroxylamine, 0°C, 60 min, gel filtration, absence of exogenous PLP) is on record as “no activity”. The entries for the “Inhibition (%)” value in experiment [1] (compound at 0.1 mM) and in experiment [1] (compound at 1.0 mM) were 80% and 95%, respectively.
As for `CC1=C(C(=O)O)N2C(=O)[C@@H](NC(=O)CCC[C@@H](N)C(=O)O)[C@H]2SC1` [DAOC, Deacetoxycephalosporin C (3-cephem)], the Activity in experiment [1] (setting [4]) was < 1%.

What is called inhibition is the relative decrease from the control value, in per cent. Low values mean a weak effect, high ones a strong effect.
